Laboratory results published in patent US11155668B2, “Contact-killing, QAC functionalized thermoplastic polyurethane for catheter applications” (THE UNIVERSITY OF AKRON, priority 2017, dated 2021).
“Also recorded” adds a separate entry of the source.

Experiments:
[1] = system: S. aureus; assay: Live/dead fluorescence assay on blade-coated samples modified with Q8-SH; assay type: cell-based, Staphylococcus aureus (25923); conditions: within 5 min
Description: (§1) For antimicrobial testing, blade-coated samples and catheter tubing of allyl-TPU were sterilized by EtO sterilization using an Anprolene benchtop sterilizer (Anderson Products, Inc., Haw River, N.C.) following the manufacturer's protocol to deliver approximately 0.5 cc·L^−1 of EtO gas over a 12 h sterilization cycle at 35% humidity and room temperature, followed by a 48 h purge under vacuum. The bacterial strains used in this study included Staphylococcus epidermidis (ATCC 12228), Staphylococcus aureus (25923), Escherichia coli (ATCC 25922), Pseudomonas aeruginosa (ATCC 27853), Enterococcus faecalis (ATCC 29212), and methicillin-resistant Staphylococcus aureus (MRSA) (ATCC BAA-41).
A live/dead assay was performed using overnight cultures of E. coli grown in TSB and S. aureus grown in Mueller-Hinton broth (MH). The cells were washed with PBS (3×), resuspended in PBS, and diluted to obtain an OD600=0.15 (measured using a Hach DR2800 Spectrophotometer, λ=600 nm). The bacterial suspensions (1.0 mL) were stained with 2.0 μL of a dye mixture containing equal portions of 3.34 mM SYTO 9 and 20 mM propidium iodide (L7012 LIVE/DEAD™ BACLIGHT™ Bacterial Viability Kit, ThermoFisher Scientific) and allowed to incubate at room temperature in the dark for 15 min. […] Live/dead microscopy was performed using an IX81 inverted microscope (Olympus, Center Valley, Pa.) and images were processed and quantified using ImageJ software.

[2] = system: E. faecalis; assay: Contact-killing assay (adapted from ISO 22196) on allyl-TPU blade-coated samples modified with Qx-SH; assay type: cell-based, Enterococcus faecalis (ATCC 29212); conditions: n = 1, negative control polypropylene 1.70 × 10^5
Description: (§2) To functionalize the allyl-TPU blade-coated samples with Qx-SH reagents, thiol-ene reactions were performed using the same procedure described for rhodamine-SH. Briefly, blade-coated films of allyl-TPU (250 μm thick, 2.0 cm diameter, ca. 110 mg, 20 μmol allyl) were submerged in 2 mL of an Ar purged (30 min) aqueous solution containing Qx-SH (10.0 mM) and LAP (5.0 mM), and allowed to pre-soak for 30 min under Ar. UV-treated samples were irradiated for 30 min (λ=365 nm, I=1.2 mW·cm^−2) while phys. ads. samples were kept in the absence of UV light for 30 min to control for any antimicrobial activity that is contributed by non-covalently attached QAC. Following treatment, the dye/photoinitiator solutions were drawn up and discarded, and the samples were rinsed with 5 mL of DI water (3×) then submerged in 5 mL of DI water. The samples were further rinsed with 10% EtOH (3×) and soaked in 10% EtOH for 15 min (3×), rinsing with 10% EtOH in between each soak.
as §1
(§3) The contact-killing assay was performed on physically adsorbed (phys. ads.), and UV-treated blade-coated samples modified with a series of Qx-SH reagents using a method adapted from ISO 22196. See, International Organization for Standardization. Measurement of antibacterial activity on plastics and other non porous surfaces (ISO 22196:2011), the disclosure of which is incorporated herein by reference in its entirety. Briefly, the samples were inoculated with same day cultures of select bacteria (e.g. E. coli, S. epidermidis) in dilute nutrient media (0.2% tryptic soy broth (TSB) in 1× phosphate buffered saline (PBS)) at approximately 150 colony-forming units (CFU)·mm^−2. Generally, 35 uL of 8.5×10^5 CFU/mL cultures were dispersed across the surface of the sample using sterile polypropylene cover films (area=198 mm^2). Inoculated samples were incubated in a humidified room air incubator (36° C., ca. 80% rel. humidity) for 20 h. Following incubation, surviving cells were recovered from the samples using vigorous agitation (i.e. vortexing for 20 s in PBS). Surviving cells were enumerated via 10-fold series dilution and plating 100 μL onto tryptic soy agar (TSA), incubating overnight and then plate counting CFU. The mean CFU recovered per sample (CFU/sample) were calculated by accounting for dilutions. Internal controls samples of polypropylene and chlorhexidine treated with polypropylene were included in the assay.

[3] = system: MRSA; assay: as above; assay type: cell-based; conditions: n = 1, negative control polypropylene 1.51 × 10^5
Description: as §2, §1, §3

[4] = system: NIH/3T3 fibroblast cells; assay: Cell viability assay (LIVE/DEAD staining) on coated coverslips; assay type: cell-based; conditions: for cell viability relative to glass: 24 h
Description: NIH/3T3 fibroblast cells (ATCC CRL-1658) were used to assess cell viability (passage 9) on the allyl-TPU films. The 8% allyl-TPU was spin-coated on blank glass coverslips (1 wt. % in chloroform) and samples were annealed at 60° C. for 1 h, then kept under vacuum for 24 h. The coated coverslips were then treated and rinsed as previously described to produce a control, phys. ads., and UV-treated sample modified with Q8-SH. Samples were sterilized by short-wave UV sterilization for 30 minutes. Cells were seeded at a cell density of 194,000 cells/cm^2 and cultured for 24 hours in a 37° C. incubator. Samples were then removed and stained with a LIVE/DEAD™ Viability/Cytotoxicity Kit (ThermoFisher Scientific L3224). Slides were analyzed with a Keyence BZ-X700 microscope at 20× magnification. Pictograms were analyzed with ImageJ software for cell viability counting (n=5). All groups were compared to the glass slide control.

[5] = system: E. coli; assay: Live/dead fluorescence assay on blade-coated samples modified with Q8-SH; assay type: cell-based, Escherichia coli (ATCC 25922); conditions: for E. coli killed: at 10 min
Description: as §1
A live/dead assay was performed using overnight cultures of E. coli grown in TSB and S. aureus grown in Mueller-Hinton broth (MH). The cells were washed with PBS (3×), resuspended in PBS, and diluted to obtain an OD600=0.15 (measured using a Hach DR2800 Spectrophotometer, λ=600 nm). The bacterial suspensions (1.0 mL) were stained with 2.0 μL of a dye mixture containing equal portions of 3.34 mM SYTO 9 and 20 mM propidium iodide (L7012 LIVE/DEAD™ BACLIGHT™ Bacterial Viability Kit, ThermoFisher Scientific) and allowed to incubate at room temperature in the dark for 15 min. Then, 10 μL of stained bacterial suspension was placed on a glass slide and covered with either untreated, phys. ads., or UV-treated samples modified with Q8-SH for 5 min (S. aureus) or 10 min (E. coli) before imaging. Live/dead microscopy was performed using an IX81 inverted microscope (Olympus, Center Valley, Pa.) and images were processed and quantified using ImageJ software.

[6] = system: S. epidermidis; assay: Contact-killing assay (adapted from ISO 22196) on allyl-TPU blade-coated samples modified with Qx-SH; assay type: cell-based, Staphylococcus epidermidis (ATCC 12228); conditions: n = 2, negative control polypropylene 0.93 (±0.03) × 10^5
Description: as §2, §1, §3

[7] = UV-treated samples, within 10 min, OD600=0.15

Q: For CCCCCCCC[N+](C)(C)CCCCCCCCOC(=O)CCS.[Cl-] [Q8-SH], which “portion of S. aureus killed” value ([1]; UV-treated samples) is on record?
A: ca. 75%

Q: And the “S. aureus inoculum killed (in words)” value [1, 7]?
A: nearly all; also recorded: majority

Q: What about the “portion of S. aureus killed” value ([1]; phys. ads. samples) of the same compound?
A: ca. 50%

Q: What about the “Mean CFU/Sample Recovered, E. faecalis” value ([2]; UV-treated samples) of the same compound?
A: 0.00 CFU/Sample

Q: What about the “Mean CFU/Sample Recovered, E. faecalis” value ([2]; phys. ads. samples) of the same compound?
A: 0.00 CFU/Sample

Q: What about the “Mean CFU/Sample Recovered, MRSA” value ([3]; UV-treated samples) of the same compound?
A: 0.00 CFU/Sample

Q: What about the “Mean CFU/Sample Recovered, MRSA” value ([3]; phys. ads. samples) of the same compound?
A: 0.00 CFU/Sample

Q: What about the “cell viability relative to glass” value ([4]; UV-treated samples) of the same compound?
A: > 90%

Q: And the “cytotoxicity towards mammalian cells (in words)” value ([4]; control, phys. ads. and UV-treated samples compared to a glass slide control, FIG. 68)?
A: non-cytotoxic

Q: And the “cell viability relative to glass” value ([4]; phys. ads. samples)?
A: > 90%

Q: And the E. coli killed ([5]; UV-treated samples)?
A: 90%

Q: And the “E. coli inoculum killed (in words)” value [5, 7]?
A: nearly all; also recorded: majority

Q: And the E. coli killed ([5]; phys. ads. samples)?
A: 5%

Q: And the “Mean CFU/Sample Recovered, S.epidermidis” value ([6]; UV-treated samples)?
A: 0.00 ± 0.00 CFU/Sample

Q: What about the “Mean CFU/Sample Recovered, S.epidermidis” value ([6]; phys. ads. samples) of the same compound?
A: 0.00 ± 0.00 CFU/Sample
